Data from US20220049238A1, “Synthetic Matrix Assembled and Rapidly Templated Spheroids, Organoids and 3D Cell Cultures” (Rutgers, The State University of New Jersey, priority 2020, published 2022).

Tested on: IPSC-NSC
Test: Neuronal differentiation of hybrid spheroids with DAPT loaded on nanosheets (qPCR, immunostaining)
Format: cell-based
Method: Lastly, because Mn^2+ ions are MRI active, they could be used for MRI monitoring of degradation and drug release. A 7-day degradation study was performed, and it was shown that the Mn2+ ions generated correlated with the amount of the fluorescent model drug that was released, showing that the drug was released through the degradation of the scaffold nanosheets. After confirming the drug loading and degradation properties of the scaffold nanosheets and the hybrid spheroids, varying concentrations of DAPT were then loaded on the surface of the nanosheets at […] of from 0 to 50 μM. The spheres were cultured for 7 days and then the neuronal differentiation was analyzed using both qPCR and immunostaining.

[1] = day 7, loaded concentration of 5 and 10 μM

SMILES: C[C@H](NC(=O)Cc1cc(F)cc(F)c1)C(=O)N[C@H](C(=O)OC(C)(C)C)c1ccccc1 [DAPT, N-[N-(3,5-difluorophenacetyl)-L-alanyl]-S-phenylglycine t-butyl ester]
- cell death (50 μM condition): significant cell death
- neurogenesis (50 μM condition): impaired neurogenesis
- Tuj1 positive cells by immunostaining [1]: significant increase in Tuj1 positive cells
- axon length [1]: longer axons
- increase in mRNA expression of Tuj1 [1]: ca. 1.8 fold
- mature phenotype markers Map2 and NeuN (qPCR and immunostaining) [1]: increase in mature phenotype markers
